Source: patent publication US10597388B2, “Pyridazinone herbicides” (FMC CORPORATION, priority 2014, dated 2020)

How the values were obtained:
Assay type in all cases: in vivo
kochia (Kochia scoparia) = test: Test A greenhouse herbicide test, pre- and postemergence
Procedure, shortened: (§1)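 Seeds in loam–sand blend received a preemergence directed soil spray; plants at 2–10 cm, one- to two-leaf stage, received postemergence sprays. Compounds in a non-phytotoxic solvent with surfactant. After about 10 d in a greenhouse, injury rated visually versus untreated controls on a 0–100 scale (100 = complete control).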

[1] = system: barnyardgrass (Echinochloa crus-galli); test: as above
Procedure, shortened: as §1

[2] = system: pigweed (Amaranthus retroflexus); test: as above
Procedure, shortened: as §1

[3] = system: ryegrass, Italian (Italian ryegrass, Lolium multiflorum); test: as above
Procedure, shortened: as §1

[4] = system: wheat (Triticum aestivum); test: as above; details: Postemergence; for Wheat plant response rating: 0 is no effect, 100 is complete control
Procedure, shortened: as §1

[5] = system: foxtail, giant (giant foxtail, Setaria faberii); test: as above
Procedure, shortened: as §1

corn (Zea mays) = test: as above; details: Postemergence; for Corn plant response rating: 0 is no effect, 100 is complete control
Procedure, shortened: as §1

[6] = system: ragweed (common ragweed, Ambrosia elatior); test: as above
Procedure, shortened: as §1

[7] = system: blackgrass (Alopecurus myosuroides); test: Test A greenhouse herbicide test, postemergence; details: for Blackgrass plant response rating: 0 is no effect, 100 is complete control
Procedure, shortened: (§2)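 Visual injury score, 0 (no effect) to 100 (complete control), versus untreated controls roughly 10 d after postemergence spray; plants at one- to two-leaf stage, 2 to 10 cm tall, in loam soil and sand, kept in greenhouse.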

[8] = system: galium (catchweed bedstraw, Galium aparine); test: Test A greenhouse herbicide test, postemergence; details: for Galium plant response rating: 0 is no effect, 100 is complete control
Procedure, shortened: as §2

[9] = system: barnyardgrass (Echinochloa crus-galli); test: Test B flooded paddy test; details: 250 g ai/ha, Flood; visual rating on scale of 0 to 100 where 0 is no effect and 100 is complete control; 13 to 15 d after treatment
Procedure, shortened: (§3)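 Plants grown to the 2-leaf stage. At treatment, pots were flooded to 3 cm above the soil, compound was applied directly to the paddy water, and that depth was held throughout. After 13 to 15 d in the greenhouse, response was rated visually against controls on a 0 (no effect) to 100 (complete control) scale.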

[10] = system: sedge, umbrella (small-flower umbrella sedge, Cyperus difformis); test: Test B flooded paddy test; details: 250 g ai/ha, Flood; visual rating on scale of 0 to 100 where 0 is no effect and 100 is complete control; 13 to 15 d after treatment
Procedure, shortened: as §3

rice (Oryza sativa) = test: Test B flooded paddy test; details: 250 g ai/ha, Flood; visual rating on scale of 0 to 100 where 0 is no effect and 100 is complete control; 13 to 15 d after treatment
Procedure, shortened: as §3

[11] = system: ducksalad (Heteranthera limosa); test: Test B flooded paddy test; details: 250 g ai/ha, Flood; visual rating on scale of 0 to 100 where 0 is no effect and 100 is complete control; 13 to 15 d after treatment
Procedure, shortened: as §3

[12] = Postemergence, 125 g ai/ha, 0 to 100 scale where 0 is no effect and 100 is complete control
[13] = Postemergence, 500 g ai/ha, 0 to 100 scale, 0 is no effect, 100 is complete control
[14] = Preemergence, 125 g ai/ha, 0 to 100 scale where 0 is no effect and 100 is complete control
[15] = Preemergence, 500 g ai/ha, 0 to 100 scale where 0 is no effect and 100 is complete control
[16] = 125 g ai/ha, 0 to 100 scale where 0 is no effect and 100 is complete control
[17] = Postemergence, 125 g ai/ha, 0 to 100 scale, 0 no effect, 100 complete control
[18] = Postemergence, 500 g ai/ha, visual rating after approx. 10 d, 0 to 100 scale (0 no effect, 100 complete control)
[19] = Preemergence, 125 g ai/ha, visual injury rating, 0 to 100 scale (0 no effect, 100 complete control), approx. 10 d
[20] = 125 g ai/ha, 0 to 100 scale, 0 no effect, 100 complete control
[21] = 500 g ai/ha, visual rating after approx. 10 d, 0 to 100 scale (0 no effect, 100 complete control)
[22] = Preemergence, 500 g ai/ha, 0 to 100 scale, 0 no effect, 100 complete control

Structure (SMILES): Cc1sc2ccccc2c1-c1c(OC(=O)OC(C)C)c(Cl)nn(C)c1=O [Compound 94]
- Plant response rating, Kochia (kochia (Kochia scoparia); [12]): 30
- Kochia plant response rating (kochia (Kochia scoparia); [13]): 60
- Kochia plant response rating (kochia (Kochia scoparia); [14]): 30
- Plant response rating, Kochia (kochia (Kochia scoparia); [15]): 70
- Plant response rating, Barnyardgrass [1, 12]: 0
- Barnyardgrass plant response rating [1, 13]: 40
- Barnyardgrass plant response rating [1, 14]: 0
- Plant response rating, Barnyardgrass [1, 15]: 40
- Plant response rating, Pigweed [2, 12]: 30
- Pigweed plant response rating [2, 13]: 70
- Pigweed plant response rating [2, 14]: 70
- Plant response rating, Pigweed [2, 15]: 90
- Plant response rating, Ryegrass, Italian [3, 12]: 30
- Ryegrass, Italian plant response rating [3, 13]: 50
- Ryegrass, Italian plant response rating [3, 14]: 20
- Plant response rating, Ryegrass, Italian [3, 15]: 50
- Plant response rating, Wheat [4, 16]: 0
- Wheat plant response rating ([4]; 500 g ai/ha, 0 to 100 scale): 20
- Plant response rating, Foxtail, Giant [5, 12]: 30
- Foxtail, Giant plant response rating [5, 13]: 50
- Foxtail, Giant plant response rating [5, 14]: 20
- Plant response rating, Foxtail, Giant [5, 15]: 50
- Plant response rating, Corn (corn (Zea mays); [16]): 0
- Corn plant response rating (corn (Zea mays); 500 g ai/ha, 0 to 100 scale): 0
- Plant response rating, Ragweed [6, 12]: 10
- Ragweed plant response rating [6, 13]: 60
- Ragweed plant response rating [6, 14]: 50
- Plant response rating, Ragweed [6, 15]: 80
- Plant response rating, Blackgrass [7, 16]: 0
- Blackgrass plant response rating ([7]; 500 g ai/ha, 0 to 100 scale): 30
- Plant response rating, Galium [8, 16]: 80
- Galium plant response rating ([8]; 500 g ai/ha, 0 to 100 scale): 90
- Plant response rating, Barnyardgrass [9]: 0
- Plant response rating, Sedge, Umbrella [10]: 0
- Plant response rating, Rice (rice (Oryza sativa)): 0
- Plant response rating, Ducksalad [11]: 0

Structure (SMILES): Cc1nn(C)c(=O)c(-c2c([N+](=O)[O-])ccc3ccccc23)c1OC(=O)C(C)(C)C [Compound 163]
- Plant response rating, Kochia (kochia (Kochia scoparia); [17]): 0
- Plant response rating, Kochia (kochia (Kochia scoparia); [18]): 20
- Plant response rating, Kochia (kochia (Kochia scoparia); [19]): 0
- Plant response rating, Kochia (kochia (Kochia scoparia); [15]): 0
- Plant response rating, Barnyardgrass [1, 17]: 0
- Plant response rating, Barnyardgrass [1, 18]: 0
- Plant response rating, Barnyardgrass [1, 19]: 0
- Plant response rating, Barnyardgrass [1, 15]: 0
- Plant response rating, Pigweed [2, 17]: 0
- Plant response rating, Pigweed [2, 18]: 20
- Plant response rating, Pigweed [2, 19]: 30
- Plant response rating, Pigweed [2, 15]: 70
- Plant response rating, Ryegrass, Italian [3, 17]: 20
- Plant response rating, Ryegrass, Italian [3, 18]: 70
- Plant response rating, Ryegrass, Italian [3, 19]: 10
- Plant response rating, Ryegrass, Italian [3, 15]: 50
- Plant response rating, Wheat [4, 20]: 0
- Plant response rating, Wheat [4, 21]: 0
- Plant response rating, Foxtail, Giant [5, 17]: 0
- Plant response rating, Foxtail, Giant [5, 18]: 0
- Plant response rating, Foxtail, Giant [5, 19]: 0
- Plant response rating, Foxtail, Giant [5, 15]: 0
- Plant response rating, Corn (corn (Zea mays); [20]): 0
- Plant response rating, Corn (corn (Zea mays); [21]): 0
- Plant response rating, Ragweed [6, 17]: 0
- Plant response rating, Ragweed [6, 18]: 0
- Plant response rating, Ragweed [6, 19]: 0
- Plant response rating, Ragweed [6, 15]: 0
- Plant response rating, Blackgrass [7, 20]: 0
- Plant response rating, Blackgrass [7, 21]: 20
- Plant response rating, Galium [8, 20]: 30
- Plant response rating, Galium [8, 21]: 60
- Plant response rating, Barnyardgrass [9]: 0
- Plant response rating, Sedge, Umbrella [10]: 0
- Plant response rating, Rice (rice (Oryza sativa)): 0
- Plant response rating, Ducksalad [11]: 0

Structure (SMILES): COc1nn(C)c(=O)c(-c2cccc3ccccc23)c1O [Compound 55]
- Plant response rating, Kochia (kochia (Kochia scoparia); [12]): 90
- Kochia plant response rating (kochia (Kochia scoparia); [13]): 100
- Kochia plant response rating (kochia (Kochia scoparia); [14]): 70
- Plant response rating, Kochia (kochia (Kochia scoparia); [22]): 100
- Plant response rating, Barnyardgrass [1, 12]: 60
- Barnyardgrass plant response rating [1, 13]: 90
- Barnyardgrass plant response rating [1, 14]: 90
- Plant response rating, Barnyardgrass [1, 22]: 90
- Plant response rating, Pigweed [2, 12]: 70
- Pigweed plant response rating [2, 13]: 90
- Pigweed plant response rating [2, 14]: 70
- Plant response rating, Pigweed [2, 22]: 100
- Plant response rating, Ryegrass, Italian [3, 12]: 100
- Ryegrass, Italian plant response rating [3, 13]: 100
- Ryegrass, Italian plant response rating [3, 14]: 100
- Plant response rating, Ryegrass, Italian [3, 22]: 100
- Plant response rating, Wheat [4, 16]: 0
- Wheat plant response rating ([4]; 500 g ai/ha, 0 to 100 scale): 0
- Plant response rating, Foxtail, Giant [5, 12]: 70
- Foxtail, Giant plant response rating [5, 13]: 90
- Foxtail, Giant plant response rating [5, 14]: 80
- Plant response rating, Foxtail, Giant [5, 22]: 100
- Plant response rating, Corn (corn (Zea mays); [16]): 0
- Corn plant response rating (corn (Zea mays); 500 g ai/ha, 0 to 100 scale): 20
- Plant response rating, Ragweed [6, 12]: 90
- Ragweed plant response rating [6, 13]: 100
- Ragweed plant response rating [6, 14]: 90
- Plant response rating, Ragweed [6, 22]: 100
- Plant response rating, Blackgrass [7, 16]: 70
- Blackgrass plant response rating ([7]; 500 g ai/ha, 0 to 100 scale): 80
- Plant response rating, Galium [8, 16]: 100
- Galium plant response rating ([8]; 500 g ai/ha, 0 to 100 scale): 100
- Plant response rating, Barnyardgrass [9]: 0
- Plant response rating, Sedge, Umbrella [10]: 0
- Plant response rating, Rice (rice (Oryza sativa)): 0
- Plant response rating, Ducksalad [11]: 0
